Target: T1, Helicobacter pylori-derived urease (Helicobacter pylori, UniProt P69996)
T1 construct: an urease solution prepared from Helicobacter pylori; endogenous in cells
Experiment: Screening of urease inhibitors (ammonia yield from urea)
Format: biochemical
Settings: not given
Experimental: Screening of Urease Inhibitors
One hundred (100) μl of 100 mM Bis-Tris buffer (pH 6.5) and 60 μl of an urease solution prepared from Helicobacter pylori were added to 20 μl of a test drug dissolved in 0.1% dimethylformamide solution. The mixture was incubated at room temperature for 30 minutes, and then 20 μl of 100 mM urea was added. The mixture was kept at room temperature for 10 minutes, and then the yielded ammonia in the incubation mixture was measured using a commercial test kit (Ammonia Test Wako®; Wako Pure Chemical). The percent inhibition against the yield of ammonia in the solvent addition group was calculated to obtain the IC50 value.

T1 sequence (P69996 whole entry, looked up): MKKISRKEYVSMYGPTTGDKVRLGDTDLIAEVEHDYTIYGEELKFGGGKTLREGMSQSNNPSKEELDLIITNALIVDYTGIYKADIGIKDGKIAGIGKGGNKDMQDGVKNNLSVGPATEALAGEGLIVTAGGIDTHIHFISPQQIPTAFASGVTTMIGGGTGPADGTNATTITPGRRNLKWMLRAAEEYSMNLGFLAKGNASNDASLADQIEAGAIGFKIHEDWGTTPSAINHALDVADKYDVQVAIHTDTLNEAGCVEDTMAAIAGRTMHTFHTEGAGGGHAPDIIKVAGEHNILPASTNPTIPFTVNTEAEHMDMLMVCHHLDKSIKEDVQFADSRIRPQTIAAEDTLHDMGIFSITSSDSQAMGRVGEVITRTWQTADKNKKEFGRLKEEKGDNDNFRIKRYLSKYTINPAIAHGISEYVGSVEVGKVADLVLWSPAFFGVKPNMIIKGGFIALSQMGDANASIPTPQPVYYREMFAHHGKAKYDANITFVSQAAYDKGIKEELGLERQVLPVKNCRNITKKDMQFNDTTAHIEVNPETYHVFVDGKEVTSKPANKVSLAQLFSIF

**Q.** N#Cc1ccc(C=CC(=O)NP(N)(N)=O)cc1 [compound 32, N-(Diaminophosphinyl)-4-cyanocinnamamide] was tested. Which IC50 did it give?
**A.** 14 nM

**Q.** For NP(N)(=O)NC(=O)c1ccsc1Cl [Example 38, N-(Diaminophosphinyl)-2-chloro-3-thiophenecarboxamide], which IC50 is on record?
**A.** 1.7 nM

**Q.** With Cc1cc(C(=O)NP(N)(N)=O)sc1Br [Example 29, N-(Diaminophosphinyl)-5-bromo-4-methyl-2-thiophenecarboxamide] as the molecule, how does the IC50 read?
**A.** 8.1 nM

**Q.** Which IC50 does the source give for NP(N)(=O)NC(=O)c1ccc2ccccc2c1 [compound 28, N-(Diaminophosphinyl)-2-naphthalenecarboxamide] here?
**A.** 35 nM

**Q.** Cc1cc(C)c(C(=O)NP(N)(N)=O)s1 [Example 91, N-(Diaminophosphinyl)-3,5-dimethyl-2-thiophenecarboxamide] was tested. Which IC50 did it give?
**A.** 6.3 nM

**Q.** NP(N)(=O)NC(=O)COc1ccc([N+](=O)[O-])cc1 [Example 52, N-(Diaminophosphinyl)-4-nitrophenoxyacetamide] was tested. Which IC50 did it give?
**A.** 12 nM

**Q.** NP(N)(=O)NC(=O)COc1ccccc1Cl [Example 59, N-(Diaminophosphinyl)-2-chlorophenoxyacetamide] was tested. Which IC50 did it give?
**A.** 5.4 nM

**Q.** For Cc1sc(Cl)cc1C(=O)NP(N)(N)=O [Example 33, N-(Diaminophosphinyl)-5-chloro-2-methyl-3-thiophenecarboxamide], which IC50 is on record?
**A.** 1.9 nM

**Q.** NP(N)(=O)NC(=O)c1ccc(C(F)F)s1 [Example 13, N-(Diaminophosphinyl)-5-difluoromethyl-2-thiophenecarboxamide] was tested. Which IC50 did it give?
**A.** 5.2 nM

**Q.** How did the IC50 turn out when NP(N)(=O)NC(=O)CCc1cccc(F)c1 [compound 42, N-(Diaminophosphinyl)-3-(3-fluorophenyl) propionamide] was run?
**A.** 22 nM

**Q.** How did the IC50 turn out when NP(N)(=O)NC(=O)c1ccccc1[N+](=O)[O-] [compound 18, N-(Diaminophosphinyl)-2-nitrobenzamide] was run?
**A.** 5.1 nM

**Q.** With NP(N)(=O)NC(=O)c1ccc(Cl)cc1 [compound 7, N-(Diaminophosphinyl)-4-chlorobenzamide] as the molecule, how does the IC50 read?
**A.** 6.9 nM

**Q.** With NP(N)(=O)NC(=O)C=Cc1nc2cc(Cl)ccc2o1 [Example 72, N-(Diaminophosphinyl)-3-(5-chloro-2-benzoxazolyl)propenamide] as the molecule, how does the IC50 read?
**A.** 3.6 nM

**Q.** For Cc1cc(C(=O)NP(N)(N)=O)c(C(F)(F)F)o1 [Example 48, N-(Diaminophosphinyl)-2-trifluoromethyl-5-methyl-3-furancarboxamide], which IC50 is on record?
**A.** 8.3 nM

**Q.** NP(N)(=O)NC(=O)CCc1nc2ccccc2o1 [Example 82, N-(Diaminophosphinyl)-3-(2-benzoxazolyl)propionamide] was tested. Which IC50 did it give?
**A.** 27 nM

**Q.** For NP(N)(=O)NC(=O)CSc1ccccc1 [Example 61, N-(Diaminophosphinyl)-phenylthioacetamide], which IC50 is on record?
**A.** 2.8 nM

**Q.** How did the IC50 turn out when NP(N)(=O)NC(=O)c1ccc(Cl)o1 [Example 42, N-(Diaminophosphinyl)-5-chloro-2-furancarboxamide] was run?
**A.** 2.3 nM

**Q.** NP(N)(=O)NC(=O)C=Cc1ccccc1[N+](=O)[O-] [compound 33, N-(Diaminophosphinyl)-2-nitrocinnamamide] was tested. Which IC50 did it give?
**A.** 8.3 nM

**Q.** For Nc1ccccc1CCC(=O)NP(N)(N)=O [compound 43, N-(Diaminophosphinyl)-3-(2-aminophenyl) propionamide], which IC50 is on record?
**A.** 71 nM

**Q.** Which IC50 does the source give for NP(N)(=O)NC(=O)c1cccnc1 [Reference Example 2, N-(Diaminophosphinyl)-3-pyridinecarboxamide] here?
**A.** 9.6 nM

**Q.** Cc1c(Cl)sc(Cl)c1C(=O)NP(N)(N)=O [Example 88, N-(Diaminophosphinyl)-2,5-dichloro-4-methyl-3-thiophenecarboxamide] was tested. Which IC50 did it give?
**A.** 3.3 nM

**Q.** With NP(N)(=O)NC(=O)Cc1ccccc1 [Reference Example 6, N-(Diaminophosphinyl)-phenylacetamide] as the molecule, how does the IC50 read?
**A.** 15 nM

**Q.** With NP(N)(=O)NC(=O)c1cccs1 [Example 1, N-(Diaminophosphinyl)-2-thiophenecarboxamide] as the molecule, how does the IC50 read?
**A.** 1.2 nM

**Q.** Which IC50 does the source give for Cc1cscc1C(=O)NP(N)(N)=O [Example 85, N-(Diaminophosphinyl)-4-methyl-3-thiophenecarboxamide] here?
**A.** 2.2 nM

**Q.** NP(N)(=O)NC(=O)COc1ccc(Cl)cc1 [Example 55, N-(Diaminophosphinyl)-4-chlorophenoxyacetamide] was tested. Which IC50 did it give?
**A.** 3 nM

**Q.** Which IC50 does the source give for NP(N)(=O)NC(=O)c1ccc(Br)o1 [Example 39, N-(Diaminophosphinyl)-5-bromo-2-furancarboxamide] here?
**A.** 2.2 nM

**Q.** How did the IC50 turn out when NP(N)(=O)NC(=O)CSc1nc2cc(Cl)ccc2s1 [Example 65, N-(Diaminophosphinyl)-5-chloro-2-benzothiazolylthioacetamide] was run?
**A.** 2.3 nM

**Q.** NP(N)(=O)NC(=O)C=Cc1ccc(Cl)c(Cl)c1 [compound 36, N-(Diaminophosphinyl)-3,4-dichlorocinnamamide] was tested. Which IC50 did it give?
**A.** 8.9 nM

**Q.** Which IC50 does the source give for Cc1csc(C(=O)NP(N)(N)=O)c1Cl [Example 90, N-(Diaminophosphinyl)-3-chloro-4-methyl-2-thiophenecarboxamide] here?
**A.** 6.3 nM

**Q.** How did the IC50 turn out when CCc1occc1C(=O)NP(N)(N)=O [Example 51, N-(Diaminophosphinyl)-2-ethyl-3-furancarboxamide] was run?
**A.** 22 nM

**Q.** How did the IC50 turn out when NP(N)(=O)NC(=O)CSc1nc2ccccc2o1 [Example 63, N-(Diaminophosphinyl)-2-benzoxazolylthioacetamide] was run?
**A.** 5.6 nM

**Q.** Which IC50 does the source give for CS(=O)(=O)c1ccc(C(=O)NP(N)(N)=O)s1 [Example 18, N-(Diaminophosphinyl)-5-methanesulfonyl-2-thiophenecarboxamide] here?
**A.** 11 nM

**Q.** How did the IC50 turn out when Cc1c(C(=O)NP(N)(N)=O)csc1Cl [Example 87, N-(Diaminophosphinyl)-5-chloro-4-methyl-3-thiophenecarboxamide] was run?
**A.** 2.5 nM

**Q.** With NP(N)(=O)NC(=O)c1cccc(Cl)c1 [compound 27, N-(Diaminophosphinyl)-3-chlorobenzamide] as the molecule, how does the IC50 read?
**A.** 3.9 nM

**Q.** How did the IC50 turn out when Cc1ccc(C(=O)NP(N)(N)=O)o1 [Example 43, N-(Diaminophosphinyl)-5-methyl-2-furancarboxamide] was run?
**A.** 6.2 nM

**Q.** How did the IC50 turn out when NP(N)(=O)NC(=O)CSc1ccc(F)cc1 [Example 62, N-(Diaminophosphinyl)-4-fluorophenylthioacetamide] was run?
**A.** 2.8 nM

**Q.** With NP(N)(=O)NC(=O)c1cc(Cl)cs1 [Example 84, N-(Diaminophosphinyl)-4-chloro-2-thiophenecarboxamide] as the molecule, how does the IC50 read?
**A.** 2.5 nM

**Q.** With NP(N)(=O)NC(=O)C=Cc1ccc(F)cc1 [compound 20, N-(Diaminophosphinyl)-4-fluorocinnamamide] as the molecule, how does the IC50 read?
**A.** 6.5 nM

**Q.** How did the IC50 turn out when COc1ccc(C(=O)NP(N)(N)=O)s1 [Example 22, N-(Diaminophosphinyl)-5-methoxy-2-thiophenecarboxamide] was run?
**A.** 12 nM

**Q.** With NP(N)(=O)NC(=O)c1c(F)cccc1F [Reference Example 9, N-(Diaminophosphinyl)-2,6-difluorobenzamide] as the molecule, how does the IC50 read?
**A.** 9.7 nM

**Q.** Cc1ccoc1C(=O)NP(N)(N)=O [Example 92, N-(Diaminophosphinyl)-3-methyl-2-furancarboxamide] was tested. Which IC50 did it give?
**A.** 6 nM

**Q.** How did the IC50 turn out when NP(N)(=O)NC(=O)C=Cc1ccc(F)cc1F [compound 34, N-(Diaminophosphinyl)-2,4-difluorocinnamamide] was run?
**A.** 22 nM

Same assay, conditions: Bis-Tris pH 6.5, room temperature, 30 min preincubation, 10 min with urea; read-out: IC50, inhibitory effect against Helicobacter pylori-derived urease

**Q.** CCOc1ccc2sc(SCC(=O)NP(N)(N)=O)nc2c1 [Example 66, N-(Diaminophosphinyl)-5-ethoxy-2-benzothiazolylthioacetamide] was tested. Which IC50 did it give?
**A.** 10 nM
